From PMC12067741, “Inhibition of SOD1 trimerization is a novel drug target for ALS disease” (Translational Neurodegeneration, 2025)
Entries after “also recorded” stand apart in the source; their conditions may differ. Like-named read-outs stand apart in the source and are kept apart here.

What was measured:
[1] = mouse, in vivo, iv, 1 mg/kg
[2] = Metabolic stability in liver microsomes; type: in vitro ADME; conditions: SD rat liver microsomes
[3] = mouse, in vivo, po, 20 mg/kg
Text: Next, we checked the basic in vitro ADME test including pharmacokinetics, plasma protein binding, CYP (Cytochrome P450) inhibition, metabolic stability and blood–brain barrier (BBB) permeability. […] We also plan to test safety panel assay in the future to obtain safety data for the drug.
Fig. S8. Preclinical data of PRG-A-04 a Plasma protein binding b CYP inhibition(direct) […]
d Mouse Brain Tissue penetration
For the convenience of calculation, […]

[4] = system: MT-SOD1; assay: SOD1 oligomerization assay in cells transfected with MT-SOD1 (glutaraldehyde fixation, SDS-PAGE); type: cell-based
Protocol: For SDS-PAGE, proteins were extracted from cells with the RIPA buffer (50 mmol/L Tris–Cl, pH 7.5, 150 mmol/L NaCl, 1% NP-40, 0.1% SDS and […]). To detect the oligomer status, the cells were harvested with the TNNI buffer (50 mmol/L Tris–Cl, pH 7.5, 150 mmol/L NaCl, 0.3% NP-40, 100 mmol/L iodoacetamide, protease inhibitor cocktails) and reacted with 0.04% glutaraldehyde (Glu) for 30 min, and then SDS-PAGE was performed using the pan-SOD1 antibody. Samples were separated via SDS-PAGE and transferred to PVDF membrane. Blotted membranes were blocked by 3% skim milk containing TBST buffer for 1 h and incubated with specific antibodies. The following primary antibodies were used: pan-SOD1 (GTX100554) from Genetex (Irvine, CA); misfolded SOD1-specific antibody (B8H10) from MediMabs (Montreal, Canada); Actin (sc-1616), GST (sc-138), and GFP (Green fluorescent protein; sc-8036) antibodies from Santa Cruz Biotechnology (Santa Cruz, CA); TDP-43 antibody (10782–2-AP) from Proteintech (Rosemont, IL); anti-FLAG (Sigma; F3165) from Sigma-Aldrich (St. Louis, MO). HRP-conjugated goat anti-mouse, goat anti-rabbit and mouse anti-goat antibodies (Pierce, Thermo Fisher Scientific, Inc., Rockford, IL) were used as secondary antibodies. The blots were detected using an ECL assay (Advansta) and images were acquired using the […] ImageQuant 800 (Cytiva) system and an X-Ray film detector. […]

[5] = system: SOD1^G93A−Tg mice; assay: Efficacy of i.p. injection in SOD1G93A-Tg ALS mice; type: in vivo; conditions: for reduction of rotarod latency to fall at 16 weeks compared to 11 weeks: vehicle ~43%
Protocol: To evaluate the therapeutic effect of PRG-A-04, SOD1^G93A−Tg mice received intraperitoneal injection of vehicle (DMSO, n = 6) or PRG-A-04 (20 mg/kg, n = 4; 50 mg/kg, n = 6) twice per week from 11 weeks for 6–8 weeks. WT mice (n = 5) served as negative littermates of the SOD1^G93A−Tg mice. WT mice were treated in the same conditions.
For histology analysis, SOD1^G93A−Tg mice received intraperitoneal injections starting from 11 weeks and sacrificed at 17 weeks (vehicle, n = 3; PRG-A-04 20 mg/kg, n = 2, 50 mg/kg, n = 2) and 19 weeks (vehicle, n = 2; PRG-A-04 50 mg/kg, n = 2). WT male mice (n = 5) were sacrificed at 17 weeks. Mice were sacrificed by i.p. (intraperitoneal) injection of avertin at a volume of 150–200 μL. The spinal cord was obtained and fixed in 4% paraformaldehyde for 48 h and embedded in paraffin blocks. The embedded tissues (cervical region of the spinal cord) were sectioned at 5 µm by Accu-Cut ® SRMTM 200 Rotary Microtome (Sakura Finetek, Torrance, CA) and transferred onto adhesive-coated slides (Marienfeld Laboratory Glassware, Lauda-Königshofen, Germany). After deparaffin and rehydration, the slides were stained with hematoxylin and eosin (H&E) to detect spinal cord neurons. In addition, immunohistochemistry (IHC) with antibodies for neuronal markers MAP2 (ab32454, Abcam, Cambridge, UK) and NeuN (ab177487, Abcam) as well as for SOD1 (GTX100554, Genetex, Irvine, CA) was performed. The intensity of MAP2 and NeuN was calculated with the Image J software (version 1.54p, National Institute of Mental Health, MD). For counting intensity, IHC images were divided using the “color deconvolution” function in Image J software and the DAB signal was quantified.
Age-matched WT mice were tested as positive control. […] Mouse movement was recorded.
PRG-A-04 (20 mg/kg or 50 mg/kg) was injected intraperitoneally (i.p., twice a week) in 11-week-old SOD1^G93A−Tg mice to verify its efficacy in vivo (Fig. S4a). […] We performed the rotarod test to monitor muscle strength.
11 weeks old mice were injected with 20 mg/kg and 50 mg/kg, twice per week for 6~8 weeks and checked the motility with rotarod test. To check the histology analysis, some mouse groups were sacrificed and the spinal cord was isolated at 16 weeks and 18 weeks. b, […]
(d) The 11 weeks old mice were injected with PRG-A-04 for 6 weeks and sacrificed at 16 weeks. The cervical spinal cord was stained with H&E. Scale bar; […]. (e) Representative images […]
The tissue lysates were harvest with TNNI buffer and incubation for 30 min then fixed with 0.04% glutaraldehyde (Glu) for 30min. Samples were separated using SDS-PAGE. Arrow indicates human SOD1(hSOD1- […]
MAP2 (e) and the number of NeuN positive cells (f) were counted with Image J software.

[6] = system: SOD1^G93A−Tg mice; assay: Efficacy of oral (p.o., ASD) administration in SOD1G93A-Tg ALS mice
Protocol: For mice with p.o. injection, the mice were trained for 2 weeks from the age of 7 weeks, and the rotarod test was performed from 9 weeks. Age-matched WT mice were tested as positive control. […] Mouse movement was recorded. The recorded video file was further analyzed using the EthoVision XT 15 software (Noldus, Wageningen, Netherlands).

## COc1cc(C=CCOC2Cc3cc4ccc(=O)oc4cc3OC2(C)C)ccc1[N+](=O)[O-] (stereo not shown) [PRG-A-04]
[1]
  AUC0-inf: 1857.00 ng·h/mL
  AUC0-last: 1826.50 ng·h/mL
  C0 (or) Cmax: 1272.33 ng/mL
  T1/2: 4.12 h
[2]
  extent of metabolism in liver microsomes: highly metabolized
[3]; 0.5 h
  Brain/Plasma Ratio, M01+3n: 2.18
  Brain/Plasma Ratio, M02+3n: 1.54
  Brain/Plasma Ratio, M03+3n: 1.90
  Brain/Plasma Ratio, Mean: 1.87
[3]; 1 h
  Brain/Plasma Ratio, M01+3n: 2.29
  Brain/Plasma Ratio, M02+3n: 2.02
  Brain/Plasma Ratio, M03+3n: 2.02
[3]; 12 h
  Brain/Plasma Ratio, M01+3n: 1.92
  Brain/Plasma Ratio, M02+3n: 1.87
  Brain/Plasma Ratio, M03+3n: 1.71
  Brain/Plasma Ratio, Mean: 1.84
[4]; cells transfected with MT-SOD1
  effect on SOD1 dimer formation: did not affect dimer formation
[4]; cells transfected with MT-SOD1 vectors
  effect on MT-SOD1 aggregation / oligomerization: suppressed the MT-SOD1 aggregation; also recorded: blocked aggregation of various SOD1 mutants; also recorded: suppressed SOD1 oligomerization by MT-SOD1 in a dose-dependent manner
[5]; i.p. 20 mg/kg twice a week from 11 weeks (first of 'respectively')
  reduction of rotarod latency to fall at 16 weeks compared to 11 weeks: 14.4%
[5]; i.p. 50 mg/kg twice a week from 11 weeks (second of 'respectively')
  reduction of rotarod latency to fall at 16 weeks compared to 11 weeks: 20.1%
[5]; i.p. 50 mg/kg, age of 18 weeks
  motor function in open field test: significantly improved motor function
[5]; i.p. 20 and 50 mg/kg, immunohistochemistry
  SOD1 inclusion bodies in spinal cord: reduced SOD1 inclusion bodies
[5]; i.p. 20 or 50 mg/kg twice a week
  toxicity regarding body weight loss: no cytotoxicity regarding body weight loss
[5]; i.p., histology at 16 weeks, versus vehicle
  number of neurons in cervical region of the spinal cord: increased the number of neurons
[5]; i.p., western blotting of cervical spinal cord lysates
  insolubility and oligomerization of SOD1 in spinal cord: decrease of insolubility and oligomerization of SOD1
[6]; oral administration
  extension of lifespan of ALS mice: up to 3 weeks
[6]; p.o. twice a week from 9 weeks
  toxicity on oral administration: without toxicity
[6]; p.o. twice a week from 9 weeks, dose not stated, vehicle about 73%
  reduction of movement (rotarod latency) at 17 weeks: 45%
